Results as given in patent publication US20080221205A1, “FURAN DERIVATIVES FOR PREVENTING AND CURING OSTEOPOROSIS AND PHARMACEUTICAL COMPOSITIONS CONTAINING THE SAME” (priority 2002, published 2008).
“Also recorded” adds a separate entry of the source.

Key:
[1] = system: ovariectomized white mice; assay: Bone mineral densitometer test, preventive effect on osteoporosis; assay type: in vivo; details: for Change in BMD, %: test group, oral 10 mg per mouse after ovariectomy
Protocol: After ovariectomy, female white mice weighing about 250 g were orally administered with 10 mg of the Compound 1 per mice for four weeks. Bone mineral density (BMD) was measured before the ovariectomy and every week during the administration of the Compound 1, using a bone mineral densitometer, XCT 540 Research SA made in Germany.
(§1) After anesthetizing the mice being bred in cages by intraperitoneal injection of a mixture of Ketamine HCl (ketara 10 mg/kg) and 2% xylazine HCl (Roupun 0.15 ml/kg), BMD measurement was made at a voxel size of 0.1×0.1 mm^2 and threshold values of 280 mg/cm^2 for cancellous bone and 500 mg/cm^2 for compact bone. The analysis sites at the proximal tibias were determined by Scout scans (10 mm/sec), and BMD was measured at three slices at the determined sites by CT scans (7 mm/sec). BMD measurement was performed twice or more at the same site every week during four weeks.

[2] = system: ovariectomized white mice; assay: Bone mineral densitometer test, therapeutic effect on osteoporosis; assay type: in vivo; details: test group
Protocol: After ovariectomy, female white mice weighing about 250 g were bred for four weeks. After checking the onset of osteoporosis in the mice, each of the mice was orally administered with 220 μl of the Compound 1 dissolved in 30 ml water for four weeks.
BMD measurement was performed before ovariectomy and every week for eight weeks after ovariectomy, using a bone mineral densitometer, XCT 540 Research SA made in Germany.
as §1, with “eight weeks after ovariectomy.” for “four weeks.”

[3] = system: osteoclast progenitor cells; assay: Formation of TRAP-positive multinucleated cells from osteoclast progenitors; assay type: cell-based, mice; details: concentration not given, control 132
Protocol: In order to investigate the effects of the Compound 1 on differentiation and activity of osteoclasts, when differentiation of osteoclast progenitors was induced, the activity of Tartrate-resistant acid phosphatase (TRAP) as an osteoclastic marker enzyme was investigated, and, when differentiated osteoclasts were cultured on calcium phosphate-coated plates (OAAS, OCT Inc.), resorption activity (formation of resorption pits) were measured.
First, bone marrow cells were isolated, as follow. After sacrificing 7-9 week female mice by cervical dislocation, femur and tibia were excised aseptically while removing attached soft tissues. After cutting both ends of long bones, 1 ml of an enzyme solution, containing 0.1% collagenase (Gibco), 0.05% trypsin and 0.5 mM EDTA (Gibco), was injected to the bone marrow cavity at one end using a syringe with a 26-guage needle, and bone marrow was then collected. After shaking the recovered bone marrow for 30 min, bone marrow cells were collected, and cultured in α-minimum essential medium (α-MEM) supplemented with 10% FBS for 24 hrs. […]
Osteoclasts are derived from hematopoietic cells belonging to the monocyte/macrophage lineage originating in bone marrow. […] The formed TRAP-positive multinucleated cells containing three or more nuclei were counted as osteoclasts, and the counted cell number was compared to that of a control not treated with the Compound 1.

Runx2 = Runx2 expression, p6xOSE2-Luc luciferase assay in C2C12 cells; assay type: cell-based, mouse; details: concentration not given
Protocol: In the following tests, three kinds of cell lines were used. The human osteosarcoma cell lines, MG-63 (ATCC No. CRL-1427) and HOS (ATCC No. CRL-1543), and mouse muscle C2C12 muscle cells (ATCC No. CRL-1772) were purchased from ATCC (American Type Culture Collection, Rockville, USA), and cultured in Dulbecco's modified Eagle's medium (DMEM) supplemented with 10% fetal bovine serum (FBS).
Primarily, transient transfection was carried out using a p6xOSE2-Luc vector, which was prepared by inserting into a pGL3 promoter vector six tandem copies of the OSE2 motif, the binding site of the transcriptional factor Runx2 that is a critical regulator for osteoblast differentiation. Runx2 expression levels were determined by luciferase assay. The test procedure will be described in more detail, as follows.
C2C12 cells were plated onto 6-well plates at a density of 1 (10^5 cells per well, and cultured for 24 hrs in a 5% CO2 incubator.
Then, the cells transiently transfected with the p6xOSE2-Luc vector using a transfection reagent, LipofectAmine, as follows. The plasmid DNA was reacted with the transfection reagent for 15 min to form p6xOSE2-Luc DNA:lipofectamine complexes. During this reaction, culture medium was removed from each well of the plates, the cells were washed with FBS-free DMEM, and 800 μl of FBS-free DMEM was added to each well. […]

For `O=Cc1ccc(CO)o1` [Compound 1, 5-hydroxymethylfuran-2-carboxyaldehyde], the “Change in BMD, %” value ([1]; Week 1, control −7.5) was −2.5%, the “Change in BMD, %” value ([1]; Week 2, control −11.6) was −3.2% and the “Change in BMD, %” value ([1]; Week 3, control −14.9) was −1.8%. For the same compound, the “Change in BMD, %” value ([1]; Week 4, control −18.6) was 3.7%, the “BMD compared to that before ovariectomy (in words)” value ([1]; oral 10 mg/day for four weeks after ovariectomy) was “increase in BMD; also recorded: remarkably increased bone mineral density (BMD)” and the “Change in BMD, %” value ([2]; Week 1 after ovariectomy (before administration), control −3) was −2.9%. The “Change in BMD, %” value ([2]; Week 3 after ovariectomy (before administration), control −15) was −14%, the “Change in BMD, %” value ([2]; Week 4 after ovariectomy (start of oral 220 μl administration), control −19) was −17% and the “Change in BMD, %” value ([2]; Week 7 after ovariectomy, oral 220 μl from week 4, control −25.9) was −19%. The “Number of TRAP-positive multinucleated cells” value [3] was 77, the “Number of TRAP-positive multinucleated cells” value ([3]; listed as compound prepared in Example 1) was “remarkably reduced” and the “Activity of Runx2 (in words)” value (Runx2) was “increase the activity of Runx2”.
